Where “and” joins values, the source holds several entries; their conditions need not be identical. Identical values can stand only once.
Assays:
[1] = test system: RBCs from donors with homozygous SCD; experiment: Sickle inhibition in SS blood suspensions under hypoxia (2.5% oxygen); assay type: cell-based; conditions: Homo sapiens, 2 mM, 4 biological replicates, read-out: % Sickling Inhibition (Hypoxia)
Experimental: All compounds (Comp 1-13) and comparator molecules (VZHE-039, PP-14, INN-310, and Voxelotor) were evaluated following established procedures. Blood samples from individual donors with homozygous SCD (obtained with informed consent) were diluted using Hemox buffer solution with the addition of glucose (10 mM) and BSA (0.2%) to adjust hematocrit of the blood suspensions to 20%, which standardizes the procedure to normalize the ratio of RBCs to drug, for assay consistency and reproducibility. Briefly, blood suspensions were incubated under room air in the presence of various concentrations of test compounds (0-2 mM) at 37° C. for 1 hour in 96-well round bottom plates. Subsequently, the suspensions were incubated with a hypoxic gas mixture (2.5% Oxygen gas/balance Nitrogen gas) at 37° C. for up to 2 hours prior to fixation with 2% glutaraldehyde solution without exposure to air. The fixated blood aliquots were evaluated by microscopic morphological analysis (image analysis on Image J software) to identify the proportion of sickled and non-sickled RBCs, and sickle inhibition calculated based on the % change from negative control (DMSO).

[2] = test system: RBCs from donors with homozygous SCD; experiment: Oxygen-independent sickle inhibition in SS blood suspensions under anoxia (100% nitrogen); assay type: cell-based, human; conditions: Homo sapiens, 2 mM, 4 biological replicates, read-out: % Sickling Inhibition (Anoxia)
In short: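 After room-air re-oxygenation for 15 min to reverse sickling, SS blood suspensions were held under 100% nitrogen for 1 h (screening) or up to 2.5 h (time course), with aliquots fixed at set intervals. Sickled versus non-sickled cells were counted by bright-field microscopy to calculate sickle inhibition.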

intracellular Hb = biological target: T1, intracellular Hb (Mus musculus, UniProt P01942); experiment: In vivo modification of intracellular Hb in wild-type mice; design: species or system C57BL/6 mice
T1 construct: from tissue; host or cells: blood (red cell lysates) of dosed C57BL/6 mice
T1 sequence (P01942 2-142 limits assumed): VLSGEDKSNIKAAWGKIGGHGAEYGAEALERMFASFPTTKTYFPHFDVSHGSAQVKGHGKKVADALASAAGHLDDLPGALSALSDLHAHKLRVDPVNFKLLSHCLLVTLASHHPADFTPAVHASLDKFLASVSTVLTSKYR
T1 sequence (P02088 2-147 partner limits assumed): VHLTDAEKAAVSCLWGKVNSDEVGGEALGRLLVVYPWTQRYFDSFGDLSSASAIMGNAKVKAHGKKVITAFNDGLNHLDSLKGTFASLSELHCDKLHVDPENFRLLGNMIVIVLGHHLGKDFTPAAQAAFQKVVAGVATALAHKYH
In short: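 C57BL/6 mice got a single 150 mg/kg dose, i.p. in 30% PEG300, or i.p. and oral in an alternative excipient. Blood was taken before dosing and at 1, 3 and 6 h (or 1, 3 or 5 h), then lysed. Lysates were analysed by cation-exchange HPLC for Hb adducts and by oxygen equilibrium for the p50 shift.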

Hb [3] = biological target: T2, Hb (Mus musculus, UniProt P01942); experiment: In vivo Hb oxygen affinity shift (Δp50) in wild-type mice; design: species or system C57BL/6 mice; conditions: for increase in Hb affinity (Δp50): IP 150 mg/kg
T2 construct: from tissue; host or cells: blood (red cell lysates) of dosed C57BL/6 mice
T2 sequence (P01942 2-142 limits assumed): as the sequence (P01942 2-142 limits assumed) above
T2 sequence (P02088 2-147 partner limits assumed): as the sequence (P02088 2-147 partner limits assumed) above
Experimental: We tested in vivo pharmacologic (pharmacodynamics) effects of select PP compounds in C57BL/6 mice. The animals were treated with a single intraperitoneal (IP) (150 mg/kg body weight) dose of PP6, PP10, PP14, and TD7, which were formulated with 30% PEG300. Blood samples were obtained prior to treatment (0) and 1, 3 and 6 h post-treatment, via submandibular bleeding, and subjected to hemolysis using standard methods. Clarified lysates, free of cell debris and red blood cell ghosts were analyzed by cation-exchange HPLC to determine the levels of drug-modified hemoglobin (adducts); and to conduct oxygen equilibrium studies to determine degrees of shift in p50 values using methodologies described earlier for in vitro studies on human samples. In a subsequent follow-up experiment, a new excipient obtained from Catalent Pharma Solutions was also used to formulate PP14 and used for a single intraperitoneal (IP) and oral (150 mg/kg body weight) dose. Blood samples were obtained prior to treatment (0) and 1, 3 or 5 h post-treatment, via submandibular bleeding, and used to determine the levels of drug-modified hemoglobin (adducts); and to conduct oxygen equilibrium studies to determine degrees of shift in p50 values as described above.

Hb [4] = biological target: T3, Hb (Homo sapiens, UniProt P69905); experiment: Affinity (KD) for Hb; assay type: binding
Target sequence in this assay (P69905 2-142 limits assumed): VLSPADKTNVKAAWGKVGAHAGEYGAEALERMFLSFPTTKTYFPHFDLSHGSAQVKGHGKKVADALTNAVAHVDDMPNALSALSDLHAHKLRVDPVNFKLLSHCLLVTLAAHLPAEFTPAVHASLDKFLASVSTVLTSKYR
Target sequence in this assay (P68871 2-147 partner limits assumed): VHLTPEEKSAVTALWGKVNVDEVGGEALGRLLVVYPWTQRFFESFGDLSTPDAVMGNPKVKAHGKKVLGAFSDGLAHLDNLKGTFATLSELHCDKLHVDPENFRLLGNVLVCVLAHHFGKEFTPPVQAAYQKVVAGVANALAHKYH

Hb [5] = biological target: T3, Hb; experiment: Hb modification (drug-adduct formation) in SS blood suspensions by cation-exchange HPLC; assay type: binding; design: Blood suspensions from subjects with homozygous SCD; from tissue; host or cells: blood suspensions (20% hematocrit) from donors with homozygous SCD; lysates of the treated red cells; conditions: 2 mM, 4 biological replicates
In short: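 Homozygous SCD blood at 20% hematocrit in Hemox buffer with glucose and BSA was incubated with compound (0-2 mM) 1 h at 37° C in air, then up to 2 h hypoxia (2.5% O2). Lysates, with or without 50 mM sodium borohydride reduction, were analysed by weak cation-exchange HPLC at A410 nm for Hb-drug adducts.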
Target sequence in this assay (P69905 2-142): as the sequence (P69905 2-142 limits assumed) above
Target sequence in this assay (P68871 with tags, fused parts or gaps E7V partner): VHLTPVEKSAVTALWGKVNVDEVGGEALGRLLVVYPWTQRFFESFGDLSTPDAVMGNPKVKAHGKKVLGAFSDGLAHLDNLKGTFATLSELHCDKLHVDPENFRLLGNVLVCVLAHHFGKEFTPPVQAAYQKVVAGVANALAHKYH

Hb modification (intracellular Hb; IP 150 mg/kg, 30% PEG300, 1 hr): 7%
Hb modification (intracellular Hb; IP 150 mg/kg, 30% PEG300, 3 hr): 13%
modified Hb (intracellular Hb; IP 150 mg/kg, 30% PEG300, 6 h, 150 mg/kg): 19.1±0.6% and 19%
Hb modification (intracellular Hb; IP 150 mg/kg, Catalent excipient, 1 hr): 21.8±1.6%
Hb modification (intracellular Hb; IP 150 mg/kg, Catalent excipient, 3 hr): 37.7±5.0%
Hb modification (intracellular Hb; IP 150 mg/kg, Catalent excipient, 5 hr): 51.1±4.3%
modified Hb (intracellular Hb; oral gavage 150 mg/kg, Catalent excipient, 1 hr): 14.5±3.7%
modified Hb (intracellular Hb; oral gavage 150 mg/kg, Catalent excipient, 3 hr): 16.3±2.2%
modified Hb (intracellular Hb; oral gavage 150 mg/kg, Catalent excipient, 5 hr): 17.1±4.4%
increase in Hb affinity (Δp50) (Hb [3]; 30% PEG300): 12%
increase in Hb affinity (Δp50) (Hb [3]; Catalent excipient, 5 hr): 43.5±7.7%
increase in Hb oxygen affinity (Δp50) (Hb [3]; oral gavage 150 mg/kg, Catalent excipient): 10.3±1.5%
Kd (Hb [4]): 150 µM
Hb Modification (%) (Hb [5]): 85.3 ± 11.3%
SMILES: COC(=O)c1ccc(COc2cccc(O)c2C=O)cn1 [PP14, Methyl 5-((2-formyl-3-hydroxyphenoxy)methyl)picolinate]
inhibition at 2000 µM [1]: 83.1 ± 6.9%
inhibition at 2000 µM [2]: 80.5 ± 17.4%

— patent publication US20240109843A1, “BENZALDEHYDE COMPOUNDS WITH DIRECT POLYMER DESTABILIZING EFFECTS TO TREAT SICKLE CELL DISEASE” (VIRGINIA COMMONWEALTH UNIVERSITY, priority 2018, published 2024)
